Here are results for one compound from patent US10426769B2, “Pharmaceutical composition for preventing and treating obesity or liver diseases, containg TLR7 agonist” (KNOTUS CO., LTD., priority 2015, dated 2019).

SMILES strings stand for the structures.

For one assay, the system named is Mouse hepatocytes. In words: Fat accumulation in UFAs-treated mouse hepatocytes (oil-red-o staining, absorbance at 540 nm). The format is cell-based. Conditions: imiquimod 10 μg/ml 1 hour before UFAs, 48 hours, vs group without treatment. Here is the method:
(§1) The imiquimod purchased in Example 1 was tested in cells. Mouse hepatocytes were obtained by cellizing liver tissues isolated from normal C57BL6/J mice and TLR7 KO mice lacking the TLR7 gene and fat accumulation was induced by treatment with 10 mM of unsaturated fatty acid (UFAs) mixed with arachidonic acid (Sigma, USA) and oleic acid (Sigma, USA) 1:1.
(§2) Cells were incubated at 37° C., 5% of CO2. DMEM (Dulbecco's modified Eagle's medium) containing 10% fetal bovine serum (FBS) and antibiotic (penicillin/streptomycin; Gibco, USA) was used as the cell culture medium. Every two days, the surface of the cultured cells was washed with phosphate buffered saline (PBS) and cells were isolated by treatment with 0.5% trypsin and then subcultured.
(§3) The imiquimod was treated at the concentration of 10 μg/ml 1 hour before the start of the experiment. UFAs were then added and the fat accumulation was assessed after 48 hours.
In order to confirm that imiquimod inhibits the fat accumulation effect in hepatocytes, the cells were cultured for 48 hours after the reagent treatment according to the method of Example 2 above. The cells were stained with an oil-red-o reagent (Lifeline Cell Technology, Carlsbad, Calif., USA) and the accumulation of fat was visually evaluated (FIG. 1).

The subject of assay [1] is SREBP-1, FAS, aP2 and PPARγ gene expression. In words: Real time RT-PCR of fat-related genes in UFAs-treated mouse hepatocytes. Conditions: imiquimod 10 μg/ml. It is filed as cell-based. Here is the method:
as §1, §2, §3
To determine the level of RNA expression at the gene level of fatty acid synthase (FAS), SREBP-1 (sterol regulatory element binding protein-1), PPARγ (peroxisome proliferator-activated receptor), and aP2 (fatty acid binding protein 4), real time RT-PCR (ABI Step One Plus Sequence System, Applied Biosystems, Singapore) was performed. The PPARγ and FAS are directly related to fat metabolism, and since the metabolism is regulated by the aP2 and SREBP-1 factor, it was determined whether imiquimod affects the factor.
From the above results, it was confirmed that imiquimod inhibited lipid accumulation in hepatocytes through inhibition of SREBP-1, FAS, aP2 and PPARγ gene expression.

In assay [2] the test system is LC3A/B and IGF-1. As to the kind of experiment: LC3A/B and IGF-1 protein levels in UFAs-treated mouse hepatocytes. It is filed as cell-based. Particulars: proteins isolated from hepatocytes, imiquimod treatment. The procedure:
as §1, §2, §3
In FIG. 3, expression of autophagosome associated with congenital immunity and IGF-1 associated with fatty liver development was compared and evaluated. According to recently published international journals, It has been reported that as the expression of LC3A/B, an indicator of autophagosome increases, fatty liver improves, and as IGF-1 is inhibited, the fatty liver improves.

Assay [3] concerns C57BL6/J mice. As to the kind of experiment: Fatty liver in mice fed high unsaturated fat diet, liver tissue and H & E staining. It is filed as in vivo, mouse. Particulars: 45% UFAs diet 8 weeks, imiquimod 0.1 mg/kg injected twice a week. The procedure: (§4) C57BL6/J mice (Daehan Biolink, Daejeon, Korea) that induced obesity with feed containing 45% UFAs for 8 weeks and a knockout mouse (TLR7 KO) from Dr. Akira (Osaka University, Suita, Japan) in which TLR7 is not inherently present, were used. For this purpose, imiquimod was injected twice a week at a concentration of 0.1 mg/kg, while fatty liver model was made by feeding only high unsaturated fat diet (UFAs diet with 45% of the calories, Daehan Biolink, Daejeon, Korea) for 8 weeks.
As a result of H & E staining of tissue sections, balloon, a sign of fat accumulation between cells and cells, was found in UFAs fed mice, which was confirmed to be improved by imiquimod injection.

The subject of assay [4] is C57BL6/J mice. As to the kind of experiment: Serological analysis of fatty liver mice (AST, ALT, triglyceride, total cholesterol). It is filed as in vivo, mouse. Conditions: UFAs feed 8 weeks, imiquimod 0.1 mg/kg twice a week. Here is the method:
as §4

For assay [5], the system named is C57BL6/J mice. As to the kind of experiment: Triglyceride and cholesterol in liver tissue of fatty liver mice (ELISA). The format is in vivo, mouse. Particulars: UFAs feed 8 weeks, imiquimod 0.1 mg/kg twice a week. Here is the method: as §4
The liver tissues separated from the mouse were finely crushed to prepare analytical samples, and the levels of triglyceride and cholesterol were measured using Enzyme Linked ImmunoSorbent Assay (ELISA) (FIG. 7).
(In an ELISA, binding on a coated surface is turned into a signal by an enzyme label.)

For assay [6], the system named is SREBP-1, FAS, PPAR-γ, and aP2. As to the kind of experiment: Real-time RT-PCR of fat-induced genes in liver tissue of fatty liver mice. It is filed as in vivo, mouse. Conditions: UFAs feed 8 weeks, imiquimod 0.1 mg/kg twice a week, liver mRNA. The procedure: as §4
Fat-induced genes such as SREBP-1, FAS, PPAR-γ, and aP2 were increased in liver tissues from liver-derived mice fed UFAs compared to the control group.

Assay [7] deals with LC3A/B and IGF-1. In words: LC3A/B and IGF-1 protein expression in liver tissue of fatty liver mice. It is filed as in vivo, mouse. Particulars: fatty liver induced by UFAs, imiquimod 0.1 mg/kg twice a week, proteins from liver tissue. Here is the method:
as §4
Autophagosome associated with congenital immunity, and expression of IGF-1 associated with fatty liver development were compared and evaluated with proteins isolated from liver tissue. Similar to the protein isolated from the hepatocytes, and expression of TLR7 and its downstream transcript Myd88 was also confirmed, and as a result, we confirmed that imiquimod affects the expression of LC3A/B, an autophagosome marker, and IGF-1, a hepatocyte-producing protein, through TLR7 hyperactivity.

Consider `CC(C)Cn1cnc2c(N)nc3ccccc3c21` [imiquimod], for which the “level of fat (absorbance at 540 nm)” value with Mouse hepatocytes is “lower than that in the group without treatment”. Moreover, in assay [1], the “expression of FAS” value is “inhibited the expression”, the “expression of PPARγ” value is reported as “inhibited the expression”, the “expression of SREBP-1” value is reported as “inhibited the expression” and the “expression of aP2” value is reported as “inhibited the expression”. For the same compound, in the assay with LC3A/B and IGF-1 [2] (IGF-1 increased by UFAs), the IGF-1 protein level entry is on record as “decreases”. In addition, the “LC3A/B (indicator of autophagosome) protein level” value in the assay on LC3A/B and IGF-1 [2] (LC3A/B inhibited by UFAs) was “significant increases”. Besides, in the assay with C57BL6/J mice [3], the “balloon (sign of fat accumulation), H & E staining of tissue sections” value is given as “improved” and the “development of fatty liver (evaluation of liver tissue)” value is recorded as “significant inhibition”. Besides, in the assay on C57BL6/J mice [4], the “serum ALT level” value is reported as “significantly decreased”, the “serum AST level” value was “significantly decreased”, the serum cholesterol level entry is given as “significantly reduced” and the serum triglyceride level entry was “significantly reduced”. In the assay with C57BL6/J mice [5], the “cholesterol level in liver tissue” value is given as “significant reductions” and the “triglyceride level in liver tissue” value is reported as “significant reductions”. In assay [6], the “FAS gene expression in liver tissue” value is reported as “significantly reduced”, the “PPAR-γ gene expression in liver tissue” value was “significantly reduced”, the “SREBP-1 gene expression in liver tissue” value is given as “significantly reduced” and the “aP2 gene expression in liver tissue” value is recorded as “significantly reduced”. Moreover, in the assay on LC3A/B and IGF-1 [7], the “IGF-1 expression in liver tissue” value is “decreased” and the “LC3A/B expression in liver tissue” value is reported as “significantly increased”.
